# Reference: patent US20060141546A1, “Bacterial test method by glycated label binding” (priority 2002, published 2006)
# B1: Uristatin: urinary trypsin inhibitor lacking the O-linked glycoconjugate chain (protein, UniProt P02760 206-352, looked up)
# Inter-alpha-trypsin inhibitor …: AVLPQEEEGSGGGQLVTEVTKKEDSCQLGYSAGPCMGMTSRYFYNGTSMACETFQYGGCMGNGNNFVTEKECLQTCRTVAACNLPIVRGPCRAFIQLWAFDAVKGKCVLFPYGGCQGNGNKFYSEKECREYCGVPGDGDEELLRFSN
# modifications: Inter-alpha-trypsin inhibitor light chain lacks O-linked glycan chain
# B2: Bikunin: urinary trypsin inhibitor with two glycoconjugate chains and two Kunitz inhibitor domains (protein, UniProt P02760 206-352, looked up)
# Inter-alpha-trypsin inhibitor …: B1 Inter-alpha-trypsin inhibitor …
# modifications: Inter-alpha-trypsin inhibitor light chain
# B3: Myoglobin: non-glycated protein as received from suppliers (protein, UniProt P02144 2-154, looked up)
# Myoglobin: GLSDGEWQLVLNVWGKVEADIPGHGQEVLIRLFKGHPETLEKFDKFKHLKSEDEMKASEDLKKHGATVLTALGGILKKKGHHEAEIKPLAQSHATKHKIPVKYLEFISECIIQVLQSKHPGDFGADAQGAMNKALELFRKDMASNYKELGFQG
# B4: beta-2-Glycoprotein: glycoprotein with one N-link complex type chain (protein, UniProt P02749 20-345, looked up)
# Beta-2-glycoprotein 1: GRTCPKPDDLPFSTVVPLKTFYEPGEEITYSCKPGYVSRGGMRKFICPLTGLWPINTLKCTPRVCPFAGILENGAVRYTTFEYPNTISFSCNTGFYLNGADSAKCTEEGKWSPELPVCAPIICPPPSIPTFATLRVYKPSAGNNSLYRDTAVFECLPQHAMFGNDTITCTTHGNWTKLPECREVKCPFPSRPDNGFVNYPAKPTLYYKDKATFGCHDGYSLDGPEEIECTKLGNWSAMPSCKASCKVPVKKATVVYQGERVKIQEKFKNGMLHGDKVSFFCKNKEKKCSYTEDAQCIDGTIEVPKCFKEHSSLAFWKTDASDVKPC
# Tests used:
# bacteria [1] = assay: Effect of divalent cations on ALP binding to bacteria (Example 7, Table 5, FIG. 12); details: for O.D. at 405 nm, With ALP: bacteria plus cation (CaCl2 1 mM, MgCl2 1 mM, ZnCl2 0.2 mM) with ALP; for O.D. at 405 nm, No ALP: bacteria plus cation (CaCl2 1 mM, MgCl2 1 mM, ZnCl2 0.2 mM)
# Method: (§1) Bacterial cells (1 to 4.5×10^7 cells/mL) were washed twice with water after centrifugation to separate cells into a packed pellet from the supernatant liquid. The washed cells in pellet form were suspended in 20 μL of EPPS buffer (50 mM at pH 8.0) and 30 μL of water. […]
# (§2) The mixture of glycated protein and bacterial cells was left at 25° C. for 15 minutes. The mixture was then centrifuged at 30,000 rpm for 30 minutes after which the bacterial cells formed a pellet at the bottom of the tube and were washed with water 4-5 times (50 μL). Centrifugation allows separation of glycoprotein bound to the bacteria cells from unbound glycated protein(s).
# (§3) After washing, the bacterial pellets were suspended in 50 μL of borate buffer (25 mM at pH 9.0). A 5 μL aliquot of the suspension was assayed for detection of ALP binding by adding 5 μL of para-nitrophenol phosphate (PNPP, 100 mM), 50 μL sodium borate buffer (25 mM at pH 9.0) and 140 μL of water. […] The color was read at 405 nm using an ELISA plate reader between 15-30 min; the absorbance is directly proportional to the amount of ALP bound to the bacteria cell.
# [2] = tested on: bacteria (Sf—Staph. faec.; Ec: E. coli); assay: Effect of various cations on ALP binding to bacteria (Example 8, FIGS. 13-14); details: FIG. 13; for effect of various cations on ALP-binding (in words): cations 2 mM, bovine intestinal mucosa ALP
# Method: as §1
# The mixture of glycated protein and bacterial cells was left at 25° C. for 15 minutes. The mixture was then centrifuged at 30,000 rpm for 30 minutes after which the bacterial cells formed a pellet at the bottom of the tube and was washed with water 4-5 times (50 μL). Centrifugation allows separation of glycoprotein bound to the bacteria cells from unbound glycated protein(s).
# as §3
# E. coli [3] = assay: ALP binding to bacteria in presence of carbohydrates, polysaccharides, glycopeptides and lectins (Example 5, Table 3); details: ALP 100 mUnits plus 15 μg of additive
# Method: (§4) Bacterial cells (1 to 4.5×10^7 cells/mL) were washed twice with water after centrifugation to separate cells into a packed pellet from the supernatant liquid. The washed cells in pellet form were suspended in 20 μl of EPPS buffer (50 mM at pH 8.0) and 30 μL of water. Hemoglobin (20 μg) was added as a blocking additive. Alkaline phosphatase (ALP) (100 mUnits) from bovine intestine and 15 μg of simple carbohydrates or proteoglycan or lectins, were added.
# as §2
# (§5) After washing, the bacterial pellets were suspended in 50 μL of sodium tetraborate buffer (25 mM at pH 9.5). A 5 uL aliquot of the suspension was assayed for detection of ALP binding by adding 5 μL of para-nitrophenol phosphate (PNPP, 100 mM), 50 μL sodium borate buffer (25 mM at pH 9.0) and 140 μL of water. […] The color is read at 405 nm using a ELISA plate reader between 15-30 min and the absorbance is directly proportional to the amount of ALP bound to the bacteria cell adhesions for glycated groups.
# S. faec. [4] = assay: as above; details: ALP 100 mUnits plus 15 μg of additive
# Method: as §4, §2, §5
# E. coli [5] = assay: Competitive inhibition of ALP binding to bacteria by added protein (Example 3, Table 2); details: protein 2-40 μg added with ALP 2 μg
# Method: (§6) Less than 20% was no inhibition (NI) and greater than 90% was complete inhibition (CI) with a binding constant great than ALP.
# (§7) Bacterial cells (1 to 4.5×10^7 cells/mL) were washed twice with water after centrifugation to separate cells into a packed pellet from the supernatant liquid. The washed cells in pellet form were suspended in 20 ul of N-2-hydroxyethyl piperazine-N′-[3-propane sulfonic acid] EPPS buffer (50 mM at pH 8.0) and 30 μL of water. Glycated protein(s) (2-40 μg) were added. In some cases a glycated protein (2-40 μg) and bovine intestinal alkaline phosphatase (ALP) (2 μg or […]) were added and the binding of the glycated protein measured by the reduction of binding of ALP.
# as §2
# (§8) After washing, the bacterial pellets were suspended in 50 μL of borate buffer (25 mM at pH 9.0). A 5 μL aliquot of the suspension was assayed for detection of ALP binding by adding 5 μL of para-nitrophenol phosphate (PNPP, 100 mM), 50 μL sodium borate buffer (25 mM at pH 9.0) and 140 μL of water. […] The color is read at 405 nm using a ELISA plate reader between 15-30 min. The absorbance is directly proportional to the amount of ALP bound to the bacteria cell adhesions for glycated groups.
# (§9) Only a protein binding to the cell adhesions for glycated groups causes the inhibition of the binding of ALP by bacteria. A protein binding to the cell adhesions for glycated groups provides a positive number in Table 2.
# S. faec. [6] = assay: as above; details: protein 2-40 μg added with ALP 2 μg
# Method: as §6, §7, §2, §8, §9
# bacteria [7] = assay: Competitive inhibition of ALP binding to bacteria (Example 3); details: for binding to bacteria compared with ALP: from complete inhibition of ALP binding
# Method: as §6, §7, §2, §8, §9
Molecule,absorbance (405 nm) of ALP bound to bacteria (E. coli [3]),absorbance (405 nm) of ALP bound to bacteria (S. faec. [4]),inhibition of the binding of ALP by bacteria (E. coli [5]),inhibition of the binding of ALP by bacteria (S. faec. [6]),other results
[Ca+2].[Cl-].[Cl-] [CaCl2],,,,,"O.D. at 405 nm, With ALP (bacteria [1]): 0.36 O.D.; O.D. at 405 nm, No ALP (bacteria [1]): 0.23 O.D."
[Co+2] [Co^+2],,,,,effect of various cations on ALP-binding (in words) [2]: stimulate ALP-binding
[Cu+2] [Cu^2+],,,,,effect of various cations on ALP-binding (in words) [2]: stimulate ALP-binding
"O=C(O)CN(CCN(CC(=O)O)CC(=O)O)CC(=O)O [EDTA, reference compound]",,,,,ALP activity in the presence of EDTA ([2]; EDTA 10 mM): total inhibition
[Fe+2] [Fe^2+],,,,,effect of various cations on ALP-binding (in words) [2]: stimulate ALP-binding
C[C@H](O)[C@@H](O)[C@@H](O)[C@H](O)C=O [Fucose],2.0,2.3,,,
"CC(=O)N[C@@H]1[C@@H](O)[C@@H](O)[C@@H](CO)O[C@H]1O [GalNAc, N-Acetyl-β-D-Galactosamine]",1.8,1.9,,,
"CC(=O)N[C@@H]1[C@@H](O)[C@H](O)[C@@H](CO)O[C@H]1O [GlcNAc, N-Acetyl-β-D-Glucosamine]",2.0,2.0,,,
O=C[C@H](O)[C@@H](O)[C@H](O)[C@H](O)C(=O)O [Glucuronic acid],1.9,2.0,,,
O=C[C@@H](O)[C@H](O)[C@@H](O)[C@H](O)C(=O)O [Iduronic acid],1.9,2.0,,,
[Cl-].[Cl-].[Mg+2] [MgCl2],,,,,"O.D. at 405 nm, With ALP (bacteria [1]): 0.44 O.D.; O.D. at 405 nm, No ALP (bacteria [1]): 0.20 O.D."
C[C@@H](O[C@H]1[C@H](O)[C@@H](CO)OC(O)[C@@H]1N)C(=O)O (stereo partly shown) [Muramic Acid],1.8,2.1,,,
Chondroitin sulfate A,1.1,1.3,,,
Chondroitin sulfate B,0.9,0.5,,,
Concanavalin A,0.0,0.1,,,
Hemoglobin [reference compound],,,<20%,<20%,inhibition of the binding of ALP by bacteria (in words) (bacteria [7]): did not inhibit the binding of ALP
Hyaluronic Acid,1.8,2.0,,,
Tamm-Horsfall protein (THP): glycated protein with one high-mannose and five complex or hybrid type chains,,,40%,49%,
"Transferrin: glycated protein, simple carbohydrates",,,75%,75%,
polyarginine [reference compound],,,,,inhibition of the binding of ALP by bacteria (in words) (bacteria [7]): not found to inhibit ALP activity
polyhistidine [reference compound],,,,,inhibition of the binding of ALP by bacteria (in words) (bacteria [7]): not found to inhibit ALP activity
polylysine [reference compound],,,,,inhibition of the binding of ALP by bacteria (in words) (bacteria [7]): not found to inhibit ALP activity
α-1-Antitrypsin: glycated protein as received from suppliers,,,84%,74%,
α-1-glycoprotein (AGP): glycated protein with five complex or hybrid type chains,,,86%,>90%,binding to bacteria compared with ALP (bacteria [7]): better binders than ALP
B1,,,>90%,>90%,effect of fragmentation of the peptide chain on inhibition of ALP binding (bacteria [7]; fragmentation with protease): did not impact the inhibition; binding to bacteria compared with ALP (bacteria [7]): better binders than ALP
B2,,,>90%,>90%,binding to bacteria compared with ALP (bacteria [7]): better binders than ALP
B3,,,<20%,<20%,inhibition of the binding of ALP by bacteria (in words) (bacteria [7]): did not inhibit the binding of ALP
B4,,,74%,61%,
